This experiment relates to BDF1 mice, P388 leukemia ip, median survival T/C. Nature of the experiment: NCI In Vivo Anticancer Drug Screen. Data for tumor model P388 Leukemia (intraperitoneal) in B6D2F1 (BDF1) mice. Conditions: endpoint: median survival time, higher = longer survival. The essentials:
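Reported as T/C, where T is the survival measurement in dosed animals and C the same measurement in vehicle controls.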

[1] abbreviates: dose: 50.0 mg/kg/injection, schedule: Q01DX009 (ip), vehicle: saline with Tween-80.
Where [2] appears, read: dose: 100.0 mg/kg/injection, schedule: Q01DX009 (ip), vehicle: saline with Tween-80.
Setting [3] is: dose: 100.0 mg/kg/injection, schedule: Q04DX003 (ip), vehicle: saline with Tween-80.
The mark [4] stands for this setting: dose: 200.0 mg/kg/injection, schedule: Q04DX003 (ip), vehicle: saline with Tween-80.
Setting [5] is: dose: 400.0 mg/kg/injection, schedule: Q04DX003 (ip), vehicle: saline with Tween-80.
Setting [6] is: dose: 200.0 mg/kg/injection, schedule: Q01DX009 (ip), vehicle: saline with Tween-80.
Where [7] appears, read: dose: 400.0 mg/kg/injection, schedule: Q01DX009 (ip), vehicle: saline with Tween-80.
Where [8] appears, read: dose: 6.0 mg/kg/injection, schedule: Q01DX009 (ip), vehicle: saline.

Each structure is given as a SMILES string. Where “and” joins values, the source holds several entries; their conditions need not be identical. Equal values may be shown once. Toxic doses and inconclusive results are not listed.

On to `O=c1oc(-c2ccc(C[n+]3ccc4ccccc4c3)cc2)nc2ccccc12`, for which the T/C was 100 % of control (dose: 50.0 mg/kg/injection, schedule: Q01DX005 (ip), vehicle: saline with Tween-80); 99 % of control (dose: 100.0 mg/kg/injection, schedule: Q01DX005 (ip), vehicle: saline with Tween-80); 104 % of control (dose: 200.0 mg/kg/injection, schedule: Q01DX005 (ip), vehicle: saline with Tween-80).

On to `CC(C)CNS(=O)(=O)c1ncnc2nc[nH]c12`, for which the T/C under setting [1] was 109 % of control and the T/C under setting [2] is 109 % of control.

For the molecule `OC(Cc1nc(-c2ccccc2)c(-c2ccccc2)s1)(C(F)(F)F)C(F)(F)F`, the T/C is, setting by setting: under setting [3], 100 % of control; under setting [4], 104 % of control; under setting [5], 100 % of control.

On to `CCOC(=O)c1cc2sccc2[nH]1`, for which the T/C reads like this: under setting [2], 103 % of control; under setting [3], 104 % of control; under setting [6], 100 % of control; under setting [4], 109 % of control; under setting [7], 115 % of control; under setting [5], 113 % of control.

With `Cc1cnc(C#N)c(-n2ccnc2)n1`, the T/C reads like this: (dose: 12.5 mg/kg/injection, schedule: Q01DX009 (ip), vehicle: water) 92 % of control; (dose: 25.0 mg/kg/injection, schedule: Q01DX009 (ip), vehicle: water) 100 % of control; (dose: 50.0 mg/kg/injection, schedule: Q01DX009 (ip), vehicle: water) 95 % of control; (dose: 100.0 mg/kg/injection, schedule: Q01DX009 (ip), vehicle: water) 100 % of control; (dose: 200.0 mg/kg/injection, schedule: Q01DX009 (ip), vehicle: water) 101 % of control.

On to `c1ccc2cc3nc4cc5ccccc5cc4nc3cc2c1`, for which the T/C under setting [2] is 99 % of control, the T/C under setting [6] is 100 % of control and the T/C under setting [7] is 100 % of control.

Turning to `Nc1nc2n[nH]nc2c(=O)[nH]1`, the T/C runs as follows: (dose: 25.0 mg/kg/injection, schedule: Q01DX010 (ip), vehicle: alkali diluted with saline) 118 % of control; (dose: 100.0 mg/kg/injection, schedule: Q01DX010 (ip), vehicle: alkali diluted with saline) 165 % of control; (dose: 200.0 mg/kg/injection, schedule: Q01DX010 (ip), vehicle: alkali diluted with saline) 160 % of control and 163 % of control.

As for `COc1ccc(O)c(/C=C/c2cc[n+](C)cc2)c1`, the T/C was 91 % of control (dose: 100.0 mg/kg/injection, schedule: Q04DX002 (ip), vehicle: saline with Tween-80) and 97 % of control (dose: 200.0 mg/kg/injection, schedule: Q04DX002 (ip), vehicle: saline with Tween-80).

Turning to `c1ccc(CCSc2ncnc3nc[nH]c23)cc1`, the T/C (dose: 62.5 mg/kg/injection, schedule: Q01DX010 (ip), vehicle: saline) was 95 % of control and 104 % of control; the T/C (dose: 125.0 mg/kg/injection, schedule: Q01DX010 (ip), vehicle: saline) was 95 % of control and 100 % of control; the T/C (dose: 250.0 mg/kg/injection, schedule: Q01DX010 (ip), vehicle: saline) was 100 % of control; the T/C (dose: 500.0 mg/kg/injection, schedule: Q01DX010 (ip), vehicle: saline) was 86 % of control and 109 % of control.

`NC(=S)N/N=C/c1ccccn1`: the T/C runs as follows: (dose: 1.0 mg/kg/injection, schedule: Q01DX010 (ip), vehicle: carboxymethylcellulose (CMC)) 110 % of control; (dose: 2.0 mg/kg/injection, schedule: Q01DX010 (ip), vehicle: carboxymethylcellulose (CMC)) 110 % of control; (dose: 30.0 mg/kg/injection, schedule: Q01DX010 (ip), vehicle: saline) 112 % of control.

For `NC(N)=Nc1nc2ccccc2s1`, the T/C runs as follows: (dose: 12.5 mg/kg/injection, schedule: Q04DX003 (ip), vehicle: saline sonified) 104 % of control; (dose: 25.0 mg/kg/injection, schedule: Q04DX003 (ip), vehicle: saline sonified) 100 % of control; (dose: 50.0 mg/kg/injection, schedule: Q04DX003 (ip), vehicle: saline sonified) 100 % of control.

Take `CC1(C)c2ccccc2C2C1C1(Cl)C(=O)C2(Cl)C(Cl)=C1Cl` (stereo not drawn): the T/C (dose: 100.0 mg/kg/injection, schedule: Q04DX003 (ip), vehicle: saline sonified) was 100 % of control; the T/C (dose: 200.0 mg/kg/injection, schedule: Q04DX003 (ip), vehicle: saline sonified) is 95 % of control; the T/C (dose: 400.0 mg/kg/injection, schedule: Q04DX003 (ip), vehicle: saline sonified) was 100 % of control.

On to `COc1cc2ccc(C(C)NCC#N)cc2cc1OC` (stereo not drawn), for which the T/C is 109 % of control (dose: 50.0 mg/kg/injection, schedule: Q01DX009 (ip), vehicle: Klucel (hydroxypropylcellulose) (HPC)); 100 % of control (dose: 50.0 mg/kg/injection, schedule: Q04DX003 (ip), vehicle: Klucel (hydroxypropylcellulose) (HPC)); 100 % of control (dose: 100.0 mg/kg/injection, schedule: Q01DX009 (ip), vehicle: Klucel (hydroxypropylcellulose) (HPC)); 95 % of control (dose: 100.0 mg/kg/injection, schedule: Q04DX003 (ip), vehicle: Klucel (hydroxypropylcellulose) (HPC)); 122 % of control (dose: 200.0 mg/kg/injection, schedule: Q01DX009 (ip), vehicle: Klucel (hydroxypropylcellulose) (HPC)); 95 % of control (dose: 200.0 mg/kg/injection, schedule: Q04DX003 (ip), vehicle: Klucel (hydroxypropylcellulose) (HPC)).

In the case of `CC(C)N(C(C)C)C(C)CCNc1c2ccccc2nc2cc(Cl)ccc12` (stereo not drawn), the T/C is 100 % of control under setting [8]; 105 % of control (dose: 12.0 mg/kg/injection, schedule: Q01DX009 (ip), vehicle: saline); 100 % of control (dose: 24.0 mg/kg/injection, schedule: Q01DX009 (ip), vehicle: saline).

Regarding `C1CCC2[N-]CC3CCCCC3[N-]CC3CCCCC3[N-]CC3CCCCC3[N-]CC2C1.[Ni+2].[O-][Cl+3]([O-])([O-])O` (stereo not drawn), the T/C is 102 % of control (dose: 0.75 mg/kg/injection, schedule: Q01DX009 (ip), vehicle: saline); 110 % of control (dose: 1.5 mg/kg/injection, schedule: Q01DX009 (ip), vehicle: saline); 102 % of control (dose: 3.0 mg/kg/injection, schedule: Q01DX009 (ip), vehicle: saline); 105 % of control under setting [8].

`CC(CC(=O)c1ccccc1)=Nc1ccccc1.CC(CC(=O)c1ccccc1)=Nc1ccccc1.[Cu]`: the T/C (dose: 100.0 mg/kg/injection, schedule: Q01DX001 (ip), vehicle: saline sonified) is 100 % of control; the T/C (dose: 200.0 mg/kg/injection, schedule: Q01DX001 (ip), vehicle: saline sonified) was 100 % of control; the T/C (dose: 400.0 mg/kg/injection, schedule: Q01DX001 (ip), vehicle: saline sonified) is 90 % of control.

On to `CN1CCN(c2nc3ccccc3n3nnnc23)CC1`, for which the T/C by setting is: (dose: 18.75 mg/kg/injection, schedule: Q01DX009 (ip), vehicle: saline with Tween-80) 103 % of control; (dose: 37.5 mg/kg/injection, schedule: Q01DX009 (ip), vehicle: saline with Tween-80) 100 % of control.

Turning to `FC(F)(F)C(F)(F)C(F)(F)c1nc2nc(Cl)c(Cl)nc2[nH]1`, the T/C reads like this: (dose: 3.12 mg/kg/injection, schedule: Q01DX009 (ip), vehicle: saline with Tween-80) 115 % of control; (dose: 6.25 mg/kg/injection, schedule: Q01DX009 (ip), vehicle: saline with Tween-80) 105 % of control; (dose: 12.5 mg/kg/injection, schedule: Q01DX009 (ip), vehicle: saline with Tween-80) 95 % of control; (dose: 50.0 mg/kg/injection, schedule: Q04DX003 (ip), vehicle: saline with Tween-80) 95 % of control; under setting [3], 90 % of control.

With `COc1cccc2c1CCC1C2CC=C2CC3(CCC21C)OCCO3` (stereo not drawn), the T/C runs as follows: (dose: 50.0 mg/kg/injection, schedule: Q04DX003 (sc), vehicle: steriod suspending solution) 100 % of control; (dose: 100.0 mg/kg/injection, schedule: Q04DX003 (sc), vehicle: steriod suspending solution) 104 % of control; (dose: 200.0 mg/kg/injection, schedule: Q04DX003 (sc), vehicle: steriod suspending solution) 91 % of control; (dose: 400.0 mg/kg/injection, schedule: Q04DX003 (sc), vehicle: steriod suspending solution) 100 % of control.

Consider `CC(C)=NNC(=O)C1CCN1Cc1ccccc1` (stereo not drawn), for which the T/C runs as follows: (dose: 50.0 mg/kg/injection, schedule: Q01DX001 (ip), vehicle: saline) 102 % of control; (dose: 100.0 mg/kg/injection, schedule: Q01DX001 (ip), vehicle: saline) 98 % of control; (dose: 200.0 mg/kg/injection, schedule: Q01DX001 (ip), vehicle: saline) 93 % of control; (dose: 400.0 mg/kg/injection, schedule: Q01DX001 (ip), vehicle: saline) 102 % of control.

Turning to `CCOC(=O)/C(C#N)=C/N(C)Cc1ccccc1`, the T/C by setting is: under setting [1], 108 % of control; under setting [2], 105 % of control.

These data come from PubChem BioAssay AID328 (DTP/NCI, 2004).
